Reference: patent US20250215029A1 (Recludix Pharma, Inc., priority 2022, published 2025)

These molecules were tested against T1, pY705-STAT3 in PBMC (Homo sapiens, UniProt P40763) (assay: MSD-pSTAT-PBMC Assay (pSTAT3, IL-6 stimulated)). Details: PBMC, compound 3 hrs, then 10 ng/mL IL-6 for 10 min; Table 115; read-out: STAT3.
T1 construct: Cryopreserved Peripheral Blood Mononuclear Cells (PBMC) are from AllCells; host or cells: cryopreserved PBMC
Format: cell-based
Summary of the method: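 pY705-STAT3 was detected electrochemiluminescently on total-STAT3 capture plates, using lysates of human PBMCs given compound for 3 h and then IL-6 (10 ng/mL, 10 min). Values were background-subtracted against unstimulated wells and set relative to DMSO. IC50 was fitted with variable slope.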

T1 sequence (P40763 whole entry): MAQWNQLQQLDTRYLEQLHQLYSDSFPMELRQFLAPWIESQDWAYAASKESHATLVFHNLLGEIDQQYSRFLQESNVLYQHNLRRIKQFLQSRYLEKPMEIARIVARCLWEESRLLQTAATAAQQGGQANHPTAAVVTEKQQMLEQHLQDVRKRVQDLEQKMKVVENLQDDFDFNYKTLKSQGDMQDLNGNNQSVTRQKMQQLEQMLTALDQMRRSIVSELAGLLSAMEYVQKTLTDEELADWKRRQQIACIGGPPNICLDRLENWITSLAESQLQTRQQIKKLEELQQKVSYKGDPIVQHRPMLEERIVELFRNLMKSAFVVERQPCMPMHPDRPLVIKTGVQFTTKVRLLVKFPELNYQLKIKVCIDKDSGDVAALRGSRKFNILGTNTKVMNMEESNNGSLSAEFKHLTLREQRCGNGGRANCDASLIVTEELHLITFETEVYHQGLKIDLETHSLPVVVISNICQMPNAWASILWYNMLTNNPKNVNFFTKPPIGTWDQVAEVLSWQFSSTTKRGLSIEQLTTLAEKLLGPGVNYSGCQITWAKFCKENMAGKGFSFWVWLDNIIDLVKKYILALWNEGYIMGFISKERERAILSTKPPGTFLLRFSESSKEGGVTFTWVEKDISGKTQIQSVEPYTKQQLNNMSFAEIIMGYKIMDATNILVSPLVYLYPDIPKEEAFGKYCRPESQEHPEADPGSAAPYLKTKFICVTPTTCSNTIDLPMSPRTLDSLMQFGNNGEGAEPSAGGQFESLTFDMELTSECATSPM

CCCOC(=O)[C@H](C)N[P@@](=O)(Oc1ccccc1)[C@@H](F)c1ccc2sc(C(=O)N[C@H]3C[C@@H](C)C[C@H]4CC[C@@H](C(=O)N5CC(c6cnccc6C)C5)N4C3=O)cc2c1 (single isomer, unassigned) [Compound 1036] and CCCOC(=O)[C@H](C)N[P@](=O)(Oc1ccccc1)[C@H](F)c1ccc2sc(C(=O)N[C@H]3C[C@@H](C)C[C@H]4CC[C@@H](C(=O)N5CC(c6cnccc6C)C5)N4C3=O)cc2c1 (single isomer, unassigned) [Compound 1048] cannot be ordered by IC50: under 100 nM for the first, under 100 nM for the second.

CCCOC(=O)[C@H](C)NP(=O)(Cc1ccc2sc(C(=O)N[C@H]3CCC[C@H]4CC[C@@H](C(=O)N5CC(c6c(F)ccnc6OC)C5)N4C3=O)cc2c1)Oc1ccccc1 (stereo partly drawn) [Compound 275, propyl (((2-(((3S,6S,9aS)-3-(3-(4-fluoro-2-methoxypyridin-3-yl)azetidine-1-carbonyl)-5-oxooctahydro-1H-pyrrolo[1,2-a]azepin-6-yl)carbamoyl)benzo [b]thiophen-5-yl)methyl)(phenoxy)phosphoryl)-L-alaninate] and CCCOC(=O)[C@H](C)NP(=O)(Cc1ccc2sc(C(=O)N[C@H]3CCC[C@H]4CC[C@@H](C(=O)N5CC(c6c(OC)ccnc6C(F)F)C5)N4C3=O)cc2c1)Oc1ccccc1 (stereo partly drawn) [Compound 990, propyl (((2-(((3S,6S, 9aS)-3-(3-(2-(difluoromethyl)-4-methoxypyridin-3-yl)azetidine-1-carbonyl)-5-oxooctahydro-1H-pyrrolo[1,2-a]azepin-6-yl)carbamoyl)benzo [b]thiophen-5-yl)methyl)(phenoxy)phosphoryl)-L-alaninate] cannot be ordered by IC50: over 3000 nM for the first, over 3000 nM for the second.

COC[C@H](NP(=O)(Cc1ccc2sc(C(=O)N[C@H]3CCC[C@H]4CC[C@@H](C(=O)N5CC(c6cccnc6)C5)N4C3=O)cc2c1)Oc1ccccc1)C(=O)OCc1ccccc1 (stereo partly drawn) [Compound 946, benzyl O-methyl-N-(((2-(((3S,6S,9aS)-5-oxo-3-(3-(pyridin-3-yl)azetidine-1-carbonyl)octahydro-1H-pyrrolo[1,2-a]azepin-6-yl)carbamoyl)benzo [b]thiophen-5-yl)methyl)(phenoxy)phosphoryl)-L-serinate] and CCOC(=O)[C@H](Cc1ccccc1)NP(=O)(Cc1ccc2sc(C(=O)N[C@H]3CCC[C@H]4CC[C@@H](C(=O)N5CC(c6cccnc6)C5)N4C3=O)cc2c1)Oc1ccccc1 (stereo partly drawn) [Compound 389, ethyl (((2-(((3S,6S,9aS)-5-oxo-3-(3-(pyridin-3-yl)azetidine-1-carbonyl)octahydro-1H-pyrrolo[1,2-a]azepin-6-yl)carbamoyl)benzo [b]thiophen-5-yl)methyl)(phenoxy)phosphoryl)-L-phenylalaninate] fall in the same range of IC50: 100 to 1000 nM for the first, 100 to 1000 nM for the second.

First: COc1ccncc1C1CN(C(=O)[C@@H]2CC[C@@H]3CCC[C@H](NC(=O)c4cc5cc([C@H](F)[P@@](=O)(N[C@@H](C)C(=O)OC(C)C)Oc6ccccc6)ccc5s4)C(=O)N32)C1 (single isomer, unassigned) [Compound 1052]
Second: COc1ccncc1C1CN(C(=O)[C@@H]2CC[C@@H]3CCC[C@H](NC(=O)c4cc5cc([C@@H](F)[P@@](=O)(N[C@@H](C)C(=O)OC(C)C)Oc6ccccc6)ccc5s4)C(=O)N32)C1 (single isomer, unassigned) [Compound 956]
The IC50 of the first is higher: 100 to 1000 nM for the first, under 100 nM for the second. The second is the more potent here.

First: CCCOC(=O)[C@H](C)NP(=O)(Cc1ccc2sc(C(=O)N[C@H]3CCC[C@H]4CC[C@@H](C(=O)N5CC(c6cnccc6N6CC[C@H]6COC)C5)N4C3=O)cc2c1)Oc1ccccc1 (stereo partly drawn) [Compound 301, propyl (((2-(((3S,6S,9aS)-3-(3-(4-((S)-2-(methoxymethyl)azetidin-1-yl)pyridin-3-yl)azetidine-1-carbonyl)-5-oxooctahydro-1H-pyrrolo[1,2-a]azepin-6-yl)carbamoyl)benzo [b]thiophen-5-yl)methyl)(phenoxy)phosphoryl)-L-alaninate]
Second: CCCOC(=O)[C@H](C)NP(=O)(Cc1ccc2sc(C(=O)N[C@H]3CCC[C@H]4CC[C@@H](C(=O)N5CC(c6cnccc6Cl)C5)N4C3=O)cc2c1)Oc1ccccc1 (stereo partly drawn) [Compound 268, propyl (((2-(((3S,6S,9aS)-3-(3-(4-chloropyridin-3-yl)azetidine-1-carbonyl)-5-oxooctahydro-1H-pyrrolo[1,2-a]azepin-6-yl)carbamoyl)benzo [b]thiophen-5-yl)methyl)(phenoxy)phosphoryl)-L-alaninate]
The IC50 of the first is lower: under 100 nM for the first, 100 to 1000 nM for the second.

CCCCOC(=O)[C@H](C)NP(=O)(Oc1cccc2ccccc12)C(F)(F)c1ccc2sc(C(=O)N[C@H]3CCC[C@H]4CC[C@@H](C(=O)N5CC(c6cccnc6)C5)N4C3=O)cc2c1 (stereo partly drawn) [Compound 971, butyl ((difluoro(2-(((3S,6S,9aS)-5-oxo-3-(3-(pyridin-3-yl)azetidine-1-carbonyl)octahydro-1H-pyrrolo[1,2-a]azepin-6-yl)carbamoyl)benzo [b]thiophen-5-yl)methyl) (naphthalen-1-yloxy)phosphoryl)-L-alaninate] and CCCOC(=O)[C@H](C)NP(=O)(Oc1ccccc1)C(F)(F)c1ccc2sc(C(=O)N[C@H]3CCC[C@H]4CC[C@@H](C(=O)N5CC(c6cccnc6)C5)N4C3=O)cc2c1 (stereo partly drawn) [Compound 306, propyl ((difluoro(2-(((3S,6S,9aS)-5-oxo-3-(3-(pyridin-3-yl)azetidine-1-carbonyl)octahydro-1H-pyrrolo[1,2-a]azepin-6-yl)carbamoyl)benzo [b]thiophen-5-yl)methyl)(phenoxy)phosphoryl)-L-alaninate] fall in the same range of IC50: 1000 to 3000 nM for the first, 1000 to 3000 nM for the second.

CC(C)CC(=O)SCCOP(=O)(OCOC(=O)OC1COC1)C(F)(F)c1ccc2sc(C(=O)N[C@H]3CCC[C@H]4CC[C@@H](C(=O)N5CC(c6ncccn6)C5)N4C3=O)cc2c1 (stereo partly drawn) [Compound 1095, S-(2-(((difluoro(2-(((3S,6S,9aS)-5-oxo-3-(3-(pyrimidin-2-yl)azetidine-1-carbonyl)octahydro-1H-pyrrolo[1,2-a]azepin-6-yl)carbamoyl)benzo [b]thiophen-5-yl)methyl) ((((oxetan-3-yloxy)carbonyl)oxy)methoxy)phosphoryl)oxy)ethyl) 3-methyl-butanethioate] and CC(C)CC(=O)SCCOP(=O)(OCOC(=O)O[C@H]1CCOC1)C(F)(F)c1ccc2sc(C(=O)N[C@H]3CCC[C@H]4CC[C@@H](C(=O)N5CC(c6ncccn6)C5)N4C3=O)cc2c1 (stereo partly drawn) [Compound 1099, S-(2-(((difluoro(2-(((3S,6S,9aS)-5-oxo-3-(3-(pyrimidin-2-yl)azetidine-1-carbonyl)octahydro-1H-pyrrolo[1,2-a]azepin-6-yl)carbamoyl)benzo [b]thiophen-5-yl)methyl)((((((S)-tetrahydrofuran-3-yl)oxy)carbonyl)oxy)methoxy)phosphoryl)oxy)ethyl) 3-methylbutanethioate] cannot be ordered by IC50: under 100 nM for the first, under 100 nM for the second.

Compared with CCCOC(=O)[C@H](C)NP(=O)(Oc1ccccc1)C(C)(F)c1ccc2sc(C(=O)N[C@H]3CCC[C@H]4CC[C@@H](C(=O)N5CC(c6cccnc6)C5)N4C3=O)cc2c1 (stereo partly drawn) [Compound 313, propyl ((1-fluoro-1-(2-(((3S,6S,9aS)-5-oxo-3-(3-(pyridin-3-yl)azetidine-1-carbonyl)octahydro-1H-pyrrolo[1,2-a]azepin-6-yl)carbamoyl)benzo [b]thiophen-5-yl)ethyl)(phenoxy)phosphoryl)-L-alaninate], CCCOC(=O)[C@H](C)NP(=O)(Cc1ccc2sc(C(=O)N[C@H]3CCC[C@H]4CC[C@@H](C(=O)N5CC(c6cccnc6)C5)N4C3=O)cc2c1)Oc1ccccc1 (stereo partly drawn) [Compound 250, propyl (((2-(((3S,6S,9aS)-5-oxo-3-(3-(pyridin-3-yl)azetidine-1-carbonyl)octahydro-1H-pyrrolo[1,2-a]azepin-6-yl)carbamoyl)benzo [b]thiophen-5-yl)methyl)(phenoxy)phosphoryl)-L-alaninate] is lower in IC50: 1000 to 3000 nM for the first, under 100 nM for the second. The second is the more potent here.

CCCOC(=O)[C@H](C)NP(=O)(Oc1ccccc1)C(F)c1ccc2sc(C(=O)N[C@H]3CCC[C@H]4CC[C@@H](C(=O)N5CC(c6cnccc6CC)C5)N4C3=O)cc2c1 (stereo partly drawn) [Compound 261, propyl (((2-(((3S,6S,9aS)-3-(3-(4-ethylpyridin-3-yl)azetidine-1-carbonyl)-5-oxooctahydro-1H-pyrrolo[1,2-a]azepin-6-yl)carbamoyl)benzo [b]thiophen-5-yl)fluoromethyl) (phenoxy)phosphoryl)-L-alaninate] and CCCOC(=O)[C@H](C)N[P@@](=O)(Oc1ccccc1)[C@@H](F)c1ccc2sc(C(=O)N[C@H]3CCC[C@H]4CC[C@@H](C(=O)N5CC(c6cnccc6OC)C5)N4C3=O)cc2c1 (single isomer, unassigned) [Compound 1032] cannot be ordered by IC50: under 100 nM for the first, under 100 nM for the second.

CCCOC(=O)[C@H](C)NP(=O)(Oc1ccccc1)C(F)c1ccc2sc(C(=O)N[C@H]3CCC[C@H]4CC[C@@H](C(=O)N5CC(c6cncnc6N(C)C)C5)N4C3=O)cc2c1 (stereo partly drawn) [Compound 1043] and CCCOC(=O)[C@H](C)NP(=O)(Cc1ccc2sc(C(=O)N[C@H]3CCCC[C@H]4CC[C@@H](C(=O)N5CC(c6cnccc6F)C5)N4C3=O)cc2c1)Oc1ccccc1 (stereo partly drawn) [Compound 274, propyl (((2-(((3S,6S,10aS)-3-(3-(4-fluoropyridin-3-yl)azetidine-1-carbonyl)-5-oxodecahydropyrrolo [1,2-a]azocin-6-yl)carbamoyl)benzo [b]thiophen-5-yl)methyl)(phenoxy)phosphoryl)-L-alaninate] cannot be ordered by IC50: under 100 nM for the first, under 100 nM for the second.

With CCCOC(=O)CC(C)NP(=O)(Cc1ccc2sc(C(=O)N[C@H]3CCC[C@H]4CC[C@@H](C(=O)N5CC(c6cccnc6)C5)N4C3=O)cc2c1)Oc1ccccc1 (stereo partly drawn) [Compound 311, propyl 3-((((2-(((3S,6S,9aS)-5-oxo-3-(3-(pyridin-3-yl)azetidine-1-carbonyl)octahydro-1H-pyrrolo[1,2-a]azepin-6-yl)carbamoyl)benzo [b]thiophen-5-yl)methyl)(phenoxy)phosphoryl)amino) butanoate] the IC50 was over 3000 nM.
